“And” between values parts separate entries of the source, which are not always exact repeats. Equal values may be shown once.
How the values were obtained:
PC-9 cells = experiment: CCK-8 antiproliferation assay, PC-9; conditions: for Inhibitory efficacy: single repeats (Repeat 1-3), given as fraction
H1975 cells = experiment: CCK-8 antiproliferation assay, H1975; conditions: Homo sapiens, NCI-H1975, 48 h, read-out: IC50 (μM) H1975, CCK-8, 48 h, average ± SD of three independent experiments
A549 cells = experiment: CCK-8 antiproliferation assay, A549; conditions: for Inhibitory efficacy: A549 cells
H460 cells = experiment: CCK-8 antiproliferation assay, H460; conditions: for Inhibitory efficacy: H460 cells
Protocol: The compounds were dissolved in DMSO to make a 20 μM stock solution and diluted to the concentration of working solutions with complete growth medium before administration.
Cells were seeded in 96-well plates: 3,000–5,000 cells/well in 100 ul. One day after seeding, the test compounds at concentration between 1.0 and 16.0 μ M or 0.1% DMSO (as control) were added to cells in triplicate. 48 h later, CCK-8 was added and incubated the plate for 1–4 h in the incubator. The absorbance at 450 nm were measured using a microplate reader (Bio-Tek).

wild-type EGFR = wild-type EGFR (Homo sapiens, UniProt P00533); experiment: EGFR kinase assay (ELISA)
Sequence of wild-type EGFR (P00533 25-1210): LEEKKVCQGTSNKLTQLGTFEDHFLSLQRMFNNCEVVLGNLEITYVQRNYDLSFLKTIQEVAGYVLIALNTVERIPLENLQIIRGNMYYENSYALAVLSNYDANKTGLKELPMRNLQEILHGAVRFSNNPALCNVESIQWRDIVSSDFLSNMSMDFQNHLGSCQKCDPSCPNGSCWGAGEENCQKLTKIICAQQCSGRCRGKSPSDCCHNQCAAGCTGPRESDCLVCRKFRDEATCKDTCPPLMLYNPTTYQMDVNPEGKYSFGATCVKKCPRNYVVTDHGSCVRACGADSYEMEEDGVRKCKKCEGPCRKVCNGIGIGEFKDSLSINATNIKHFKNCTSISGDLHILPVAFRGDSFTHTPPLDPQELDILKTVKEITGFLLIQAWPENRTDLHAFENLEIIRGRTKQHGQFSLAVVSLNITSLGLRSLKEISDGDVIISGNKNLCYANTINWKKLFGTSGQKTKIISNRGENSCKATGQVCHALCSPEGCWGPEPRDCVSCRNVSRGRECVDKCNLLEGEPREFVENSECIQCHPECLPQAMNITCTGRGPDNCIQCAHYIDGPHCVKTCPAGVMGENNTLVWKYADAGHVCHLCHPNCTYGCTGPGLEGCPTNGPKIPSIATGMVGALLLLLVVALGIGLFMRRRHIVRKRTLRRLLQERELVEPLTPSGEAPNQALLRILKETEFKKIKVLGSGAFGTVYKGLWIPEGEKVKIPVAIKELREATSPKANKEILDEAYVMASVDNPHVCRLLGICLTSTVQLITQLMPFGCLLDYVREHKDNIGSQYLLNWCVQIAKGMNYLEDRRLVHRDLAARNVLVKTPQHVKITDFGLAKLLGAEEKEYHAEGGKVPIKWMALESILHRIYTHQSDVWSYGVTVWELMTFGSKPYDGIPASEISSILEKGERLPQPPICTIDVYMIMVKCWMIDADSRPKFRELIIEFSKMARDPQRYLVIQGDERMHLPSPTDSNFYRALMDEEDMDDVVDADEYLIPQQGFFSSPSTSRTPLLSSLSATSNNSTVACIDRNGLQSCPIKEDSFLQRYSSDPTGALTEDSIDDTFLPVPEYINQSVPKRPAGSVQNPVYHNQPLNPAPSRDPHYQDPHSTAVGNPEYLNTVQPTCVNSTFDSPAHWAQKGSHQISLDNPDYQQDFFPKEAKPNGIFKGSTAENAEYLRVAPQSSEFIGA

[1] = 2uM, given as fraction, Repeat 1-3
[2] = 4uM, given as fraction, Repeat 1-3
[3] = 8uM, given as fraction, Repeat 1-3
[4] = 16uM, given as fraction, Repeat 1-3

COCCOc1cc2ncnc(Nc3cccc(-c4cn(-c5ccccc5F)nn4)c3)c2cc1OCCOC [e6, [6,7-Bis-(2-methoxy-ethoxy)-quinazolin-4-yl]-{3-[1-(2-fluoro-phenyl)-1H-[1,2,3]triazol-4-yl]-phenyl}-amine]
IC50 (PC-9 cells; Homo sapiens, PC-9, 48 h, read-out: IC50 (μM) PC-9): 3.27 ± 0.14 µM
inhibition at 2 µM (PC-9 cells; Homo sapiens, PC-9, read-out: Inhibitory efficacy, PC-9, 2uM, single repeats (Repeat 1-3), given as fraction): 37.3%
inhibition at 4 µM (PC-9 cells; Homo sapiens, PC-9, read-out: Inhibitory efficacy, PC-9, 4uM, single repeats (Repeat 1-3), given as fraction): 61.7%
inhibition at 8 µM (PC-9 cells; Homo sapiens, PC-9, read-out: Inhibitory efficacy, PC-9, 8uM, single repeats (Repeat 1-3), given as fraction): 77.6%
inhibition at 16 µM (PC-9 cells; Homo sapiens, PC-9, read-out: Inhibitory efficacy, PC-9, 16uM, single repeats (Repeat 1-3), given as fraction): 85%
Inhibitory efficacy (PC-9 cells; PC-9, 2uM, 2 µM): 0.401 and 0.3548
Inhibitory efficacy (PC-9 cells; PC-9, 4uM, 4 µM): 0.5712 and 0.6591
Inhibitory efficacy (PC-9 cells; PC-9, 8uM, 8 µM): 0.783 and 0.7626
Inhibitory efficacy (PC-9 cells; PC-9, 16uM, 16 µM): 0.8422 and 0.8588
IC50 (H1975 cells): 16.5 ± 3.53 µM
Inhibitory efficacy (A549 cells; [1]): 0.2224 and 0.3459
Inhibitory efficacy (A549 cells; [2]): 0.572 and 0.5248
Inhibitory efficacy (A549 cells; [3]): 0.6524 and 0.6253
Inhibitory efficacy (A549 cells; [4]): 0.6986 and 0.7076
IC50 (A549 cells; Homo sapiens, A549, 48 h, read-out: IC50 (μM) A549, CCK-8, 48 h, average ± SD of three independent experiments): 4.88 ± 0.54 µM
inhibition at 2 µM (A549 cells; Homo sapiens, A549, read-out: Inhibitory efficacy, A549 cells, 2uM, given as fraction, Repeat 1-3): 25.8%
inhibition at 4 µM (A549 cells; Homo sapiens, A549, read-out: Inhibitory efficacy, A549 cells, 4uM, given as fraction, Repeat 1-3): 45.7%
inhibition at 8 µM (A549 cells; Homo sapiens, A549, read-out: Inhibitory efficacy, A549 cells, 8uM, given as fraction, Repeat 1-3): 63.5%
inhibition at 16 µM (A549 cells; Homo sapiens, A549, read-out: Inhibitory efficacy, A549 cells, 16uM, given as fraction, Repeat 1-3): 69.8%
melting point: 83 to 86 °C
Inhibitory efficacy (H460 cells; 1uM, given as fraction, Repeat 1-3): 0.0882 and 0.09728
Inhibitory efficacy (H460 cells; [1]): 0.2957 and 0.2477
Inhibitory efficacy (H460 cells; [2]): 0.4663 and 0.4358
Inhibitory efficacy (H460 cells; [3]): 0.4163 and 0.4008
Inhibitory efficacy (H460 cells; [4]): 0.4274 and 0.4066
IC50 (H460 cells; Homo sapiens, NCI-H460, 48 h, read-out: IC50 (μM) H460, CCK-8, 48 h, average ± SD of three independent experiments): 18.5 ± 2 µM
inhibition at 1 µM (H460 cells; Homo sapiens, NCI-H460, read-out: Inhibitory efficacy, H460 cells, 1uM, given as fraction, Repeat 1-3): 14.7%
inhibition at 2 µM (H460 cells; Homo sapiens, NCI-H460, read-out: Inhibitory efficacy, H460 cells, 2uM, given as fraction, Repeat 1-3): 33.2%
inhibition at 4 µM (H460 cells; Homo sapiens, NCI-H460, read-out: Inhibitory efficacy, H460 cells, 4uM, given as fraction, Repeat 1-3): 39.8%
inhibition at 8 µM (H460 cells; Homo sapiens, NCI-H460, read-out: Inhibitory efficacy, H460 cells, 8uM, given as fraction, Repeat 1-3): 42.1%
inhibition at 16 µM (H460 cells; Homo sapiens, NCI-H460, read-out: Inhibitory efficacy, H460 cells, 16uM, given as fraction, Repeat 1-3): 44.7%
inhibition at 0.0003 µM (wild-type EGFR; 0.3 nM, duplicate wells, calculated from A450): 17.1%
Inhibition (wild-type EGFR; 0.3 nM, duplicate wells, calculated from A450, 0.0003 µM): 10.6583
inhibition at 0.003 µM (wild-type EGFR; 3 nM, duplicate wells, calculated from A450): 21.5%
Inhibition (wild-type EGFR; 3 nM, duplicate wells, calculated from A450, 0.003 µM): 11.5987
inhibition at 0.03 µM (wild-type EGFR; 30 nM, duplicate wells, calculated from A450): 26.3%
Inhibition (wild-type EGFR; 30 nM, duplicate wells, calculated from A450, 0.03 µM): 21.0031
inhibition at 0.3 µM (wild-type EGFR; 300 nM, duplicate wells, calculated from A450): 29.7%
Inhibition (wild-type EGFR; 300 nM, duplicate wells, calculated from A450, 0.3 µM): 21.3166
inhibition at 3 µM (wild-type EGFR; 3000 nM, duplicate wells, calculated from A450): 70.9%
Inhibition (wild-type EGFR; 3000 nM, duplicate wells, calculated from A450, 3 µM): 70.8464
inhibition at 30 µM (wild-type EGFR; 30000 nM, duplicate wells, calculated from A450): 91.8%
Inhibition (wild-type EGFR; 30000 nM, duplicate wells, calculated from A450, 30 µM): 93.4169
IC50 (wild-type EGFR; IC50 (μM) EGFR, ELISA, 3 μmol/L ATP): 0.69 µM
